From PubChem BioAssay AID179 (DTP/NCI, 2004) come the findings set out here.

For this test, the system named is CEM cells HIV-1 protection, formazan growth assay. As to the kind of experiment: NCI AIDS Antiviral Assay. The settings on record: for IC50: measured here: growth of uninfected CEM cells. The method in brief:
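Category rules: moderately active means at least 50% protection on retest, and confirmed active means 100% protection reproducibly. The underlying data came from a formazan growth assay in HIV-1-infected CEM cells.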

“And” between values parts separate entries of the source, which are not always exact repeats. Equal values may be shown once. The source made the active and inactive calls.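 The calls were made as follows: active = compounds giving half or more protection of infected cells from virus-caused growth loss, again on retest; inactive = the rest.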

With `COC(=O)C1=NN2c3ccccc3C(=O)OCCC2(C)C1` (stereo not drawn), the EC50 is above 200 µM and the IC50 was above 200 µM.

`C(=Nc1cnc2ccccc2c1)c1ccccn1`: the EC50 was above 407 µM and the IC50 is 102 µM.

As for `COc1cc(-c2cc(=O)c3cc4c(=O)cc(-c5cc(OC)c(OC)c(OC)c5)oc4cc3o2)cc(OC)c1OC`, the EC50 is above 100 µM and the IC50 was above 100 µM.

Regarding `CC1C(=O)C(C)C(c2ccccc2)N(N=O)C1c1ccccc1` (stereo not drawn), the EC50 is above 42.7 µM and the IC50 was above 42.7 µM.

Consider `O=S(=O)(OC(=C(c1ccccc1)c1ccccc1)c1ccccc1)C(F)(F)F`, for which the EC50 was above 17.8 µM and the IC50 was above 17.8 µM.

Consider `COc1cc(C(c2c(O)c3ccccc3oc2=O)N2CCCC2)cc(OC)c1OC` (stereo not drawn), for which the EC50 was above 200 µM and the IC50 came to 107 µM.

With `CC(C)NCC(O)COC(=O)c1cccs1` (stereo not drawn), the result was inactive.

For the compound `Cc1ccc(S(=O)(=O)Nn2c(O)c(C#N)c(-c3ccccc3)c(C#N)c2=O)cc1`, the EC50 is above 200 µM and the IC50 is above 200 µM.

Take `Nc1ccccc1SSc1ccccc1C(=O)O`: the EC50 is 35.5 µM and the IC50 was found to be 41.7 µM.

`Nc1nc(N)n2c(N)nnc2n1`: the EC50 was above 200 µM and the IC50 is above 200 µM.

Consider `CC(=O)/C(=C/n1c(=S)sc2ccccc21)C(=O)Nc1ccc([N+](=O)[O-])cc1`, for which the EC50 is above 129 µM and the IC50 is 95.5 µM.

For the compound `CC(O)=NC(Cc1ccc2ccccc2c1)C(O)=NC(Cc1ccc(Cl)cc1)C(O)=NC(Cc1c[nH]c2ccccc12)C(O)=NC(CO)C(O)=NC(Cc1ccc(O)cc1)C(O)=NC(CCCN=C(N)N)C(O)=NC(CC(C)C)C(O)=NC(CCCN=C(N)N)C(=O)N1CCCC1C(O)=NC(C)C(=N)O` (stereo not drawn), the EC50 is above 87.1 µM and the IC50 was above 87.1 µM.

As for `CCS/C(SC)=C(/c1ccccc1)[P+](c1ccccc1)(c1ccccc1)c1ccccc1`, the EC50 is above 20 µM and the IC50 is 0.355 µM.

In the case of `CCc1ccccc1NC(=O)Nc1cc(C)ccn1`, the EC50 was above 200 µM and the IC50 was 24 µM.

For the compound `CO[C@H](c1ccccc1)[C@H](C)N(C)c1ccc2ccccc2c1C1=NC(C)(C)CO1`, the EC50 was above 64.6 µM and the IC50 is above 64.6 µM.

Regarding `Cc1ccccc1C(=O)NC(O)(C(F)(F)F)C(F)(F)F`, the outcome was inactive.

Take `Cc1ncc2c(n1)-c1ccccc1OC2O` (stereo not drawn): the EC50 is above 200 µM and the IC50 is above 200 µM.

As to `Fc1ccc(CN2COc3c(ccc4cccnc34)C2)cc1`, the EC50 was above 200 µM and the IC50 worked out at 34.7 µM.

For `CCCCn1c(=O)cc(C(=O)O)c2ccccc21`, the EC50 is above 200 µM and the IC50 is above 200 µM.

`CO[C@@H]1C=C[C@@]23c4cc5c(cc4CN(C[C@@H]2O)[C@H]3C1)OCO5`: the EC50 is above 603 µM and the IC50 amounted to 1.1 µM.

As to `O=C(CC(=O)c1ccccc1O)c1ccccc1`, the EC50 was above 30.2 µM and the IC50 is above 30.2 µM.

In the case of `OCCN(CCO)c1cccc(N(CCO)CCO)n1`, the result was inactive.

As to `Cc1nc2c(n1-c1ccc(Br)cc1)C(=O)c1ccccc1C2=O`, the EC50 was above 49 µM and the IC50 was found to be 5.25 µM.

Take `CCCCOP(=O)(OCCCC)/C(C#N)=C/c1ccc(C)o1`: the EC50 is above 200 µM and the IC50 worked out at 102 µM.

For the compound `CSc1c(C(=O)Nc2ccc(C)cc2)c(N)nn1-c1ccccc1`, the EC50 is above 200 µM and the IC50 is above 200 µM.

As to `O=C(O)/C=C\C(=O)Nc1ccccc1O`, the EC50 is above 200 µM and the IC50 is above 200 µM.

For the compound `NC(CCC(=O)NC(CSSCC(NC(=O)CCC(N)C(=O)O)C(=O)O)C(=O)O)C(=O)O` (stereo not drawn), the EC50 was above 200 µM and the IC50 was above 200 µM.

With `C=C1CN(S(=O)(=O)c2ccc([N+](=O)[O-])cc2)CC(=C)CN(S(=O)(=O)c2ccc([N+](=O)[O-])cc2)CC(=C)CN(S(=O)(=O)c2ccc([N+](=O)[O-])cc2)C1`, the EC50 was above 100 µM and the IC50 was above 100 µM.

Consider `CC1C(=O)CCC1C(Sc1ccccc1)(Sc1ccccc1)Sc1ccccc1` (stereo not drawn), for which the outcome was inactive.

On to `CC(=O)OC1=C(CC2CCCC2=O)C(=O)CC1` (stereo not drawn), for which the outcome was inactive.

As for `Nc1nc2c(c(-c3ccccc3Cl)n1)COC/C2=C\c1ccccc1Cl`, the outcome was inactive.

As to `CCOC(=O)[C@H](O)[C@@H](O)C(=O)NCc1ccc(C(=O)c2ccccc2)cc1`, the EC50 was above 200 µM and the IC50 is above 200 µM.

For `Cc1ccc2nc(-c3ccccc3[N+](=O)[O-])[nH]c2c1`, the EC50 was above 269 µM and the IC50 came out at 57.5 µM.

Regarding `Cn1c(=O)c2nc(-c3cccnc3)cnc2n(C)c1=O`, the EC50 is above 200 µM and the IC50 is above 200 µM.

`Cc1ccc(S(=O)(=O)Nn2c(O)c(C#N)c(-c3ccc(Cl)cc3)c(C#N)c2=O)cc1`: the EC50 was above 200 µM and the IC50 is above 200 µM.

As to `COc1cc2cc(C(=O)N3CC(CCl)c4c3cc(NC(=O)C(C)Nc3c([N+](=O)[O-])cc(C(=O)NCCN(C)C)cc3[N+](=O)[O-])c3ccccc43)[nH]c2c(OC)c1OC` (stereo not drawn), the EC50 was above 0.1 µM and the IC50 came to 0.0575 µM.

Take `c1ccc([P+](Cc2nc3ccccc3[nH]2)(c2ccccc2)c2ccccc2)cc1`: the EC50 is above 200 µM; the IC50 was 38.9 µM and 46.8 µM.

Regarding `Nc1[nH]c(=O)[nH]c(=O)c1Cc1cccc(Cl)c1`, the EC50 is above 200 µM and the IC50 worked out at 39.8 µM.

As to `NC(=O)c1nnn(Cc2ccccc2)c1N`, the EC50 was above 200 µM and the IC50 was above 200 µM.

As to `C/C(=C\CNc1ncnc2nc(Cl)[nH]c12)CO`, the EC50 was above 200 µM and the IC50 is above 200 µM.

For `CCc1cccc(C)c1NC(C)=O`, the result was inactive.

`N#Cc1nc(-c2cnccn2)oc1N`: the EC50 was above 200 µM and the IC50 came to 182 µM.

Regarding `O=C1OC(C2Cc3ccc4c(c3C2=O)CCCC4)c2ccccc21` (stereo not drawn), the EC50 is above 200 µM and the IC50 is 33.9 µM.

`Cc1c(/C=N/NC(=S)Nc2cccc(Cl)c2)c(=O)n(-c2ccccc2)n1C`: the EC50 is above 200 µM and the IC50 was above 200 µM.

For the compound `COc1cnnc2ccccc12`, the EC50 was above 676 µM and the IC50 was 603 µM.

`CC(C)(C)OC(=O)NC1CCCC1C(O)(C1=CCCC1)C1=CCCC1` (stereo not drawn): the EC50 was above 200 µM and the IC50 is 120 µM.

As for `CN(C)CCSC(=Nc1ccccc1)n1cccc1`, the EC50 is above 26.3 µM and the IC50 was above 26.3 µM.

Regarding `CC(C)(C)N=C1CC(C)(C)c2ccccc2C(=Nc2ccccc2)S1`, the result was inactive.

As to `O=S1CSCS1` (stereo not drawn), the EC50 was above 200 µM and the IC50 is above 200 µM.

As to `CCOC(=O)c1ccc(CS(=O)c2ccc(C)cc2)c([N+](=O)[O-])c1` (stereo not drawn), the EC50 was above 74.1 µM and the IC50 was 14.5 µM.

`Cc1c2ncccc2cc2oc3ccccc3c(=O)c12`: the EC50 is above 200 µM and the IC50 stood at 10 µM.

For `Cc1cc(C)nc(NS(=O)(=O)c2ccc(Nc3c4ccccc4nc4c(C(=O)N5CCN(CCOS(C)(=O)=O)CC5)ccc(Cl)c34)cc2)n1`, the EC50 is above 30.9 µM and the IC50 is above 30.9 µM.

On to `CO/N=C\c1ccc2c(c1)Sc1ccccc1O2`, for which the EC50 was above 200 µM and the concentration for half-maximal inhibition (IC50) is above 200 µM.
